In patent publication US8614223B2, “Pyrimidine hydroxy amide compounds as protein deacetylase inhibitors and methods of use thereof” (Acetylon Pharmaceuticals, Inc., priority 2010, dated 2013):

Key:
HDAC6 = HDAC6 (Homo sapiens (Human), UniProt Q9UBN7); conditions: read-out: HDAC6 IC50
HDAC2 = HDAC2 (Homo sapiens (Human), UniProt Q92769); assay: HDAC enzyme assay, HDAC2; conditions: for HDAC2 fold over HDAC6 IC50 (selectivity for HDAC6): ratio HDAC2/HDAC6; for IC50: read-out: HDAC2 IC50
HDAC1 = HDAC1 (Homo sapiens (Human), UniProt Q13547); assay: HDAC enzyme assay, HDAC1; conditions: for HDAC1 fold over HDAC6 IC50 (selectivity for HDAC6): ratio HDAC1/HDAC6; for IC50: read-out: HDAC1 IC50
HDAC3 = HDAC3 (Homo sapiens (Human), UniProt O15379); assay: HDAC enzyme assay, HDAC3; conditions: for HDAC3 fold over HDAC6 IC50 (selectivity for HDAC6): ratio HDAC3/HDAC6; for IC50: read-out: HDAC3 IC50
HDAC3, sequence (O15379 whole entry): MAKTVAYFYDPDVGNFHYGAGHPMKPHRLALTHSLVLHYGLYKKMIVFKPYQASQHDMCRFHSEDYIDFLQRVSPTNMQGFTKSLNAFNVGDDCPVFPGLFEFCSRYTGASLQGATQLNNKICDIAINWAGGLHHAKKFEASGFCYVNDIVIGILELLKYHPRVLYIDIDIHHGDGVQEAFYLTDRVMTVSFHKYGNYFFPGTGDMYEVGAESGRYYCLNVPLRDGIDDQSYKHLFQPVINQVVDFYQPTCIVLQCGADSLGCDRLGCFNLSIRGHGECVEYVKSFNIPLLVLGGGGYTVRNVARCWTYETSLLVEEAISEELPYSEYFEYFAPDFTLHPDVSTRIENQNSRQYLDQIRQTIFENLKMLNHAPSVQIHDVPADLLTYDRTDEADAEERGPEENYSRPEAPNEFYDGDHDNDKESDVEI
HDAC3, sequence (Q9Y618 395-489 partner): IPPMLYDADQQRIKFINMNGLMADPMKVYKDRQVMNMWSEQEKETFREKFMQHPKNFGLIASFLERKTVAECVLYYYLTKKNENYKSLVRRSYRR

HDAC6, sequence (Q9UBN7 whole entry): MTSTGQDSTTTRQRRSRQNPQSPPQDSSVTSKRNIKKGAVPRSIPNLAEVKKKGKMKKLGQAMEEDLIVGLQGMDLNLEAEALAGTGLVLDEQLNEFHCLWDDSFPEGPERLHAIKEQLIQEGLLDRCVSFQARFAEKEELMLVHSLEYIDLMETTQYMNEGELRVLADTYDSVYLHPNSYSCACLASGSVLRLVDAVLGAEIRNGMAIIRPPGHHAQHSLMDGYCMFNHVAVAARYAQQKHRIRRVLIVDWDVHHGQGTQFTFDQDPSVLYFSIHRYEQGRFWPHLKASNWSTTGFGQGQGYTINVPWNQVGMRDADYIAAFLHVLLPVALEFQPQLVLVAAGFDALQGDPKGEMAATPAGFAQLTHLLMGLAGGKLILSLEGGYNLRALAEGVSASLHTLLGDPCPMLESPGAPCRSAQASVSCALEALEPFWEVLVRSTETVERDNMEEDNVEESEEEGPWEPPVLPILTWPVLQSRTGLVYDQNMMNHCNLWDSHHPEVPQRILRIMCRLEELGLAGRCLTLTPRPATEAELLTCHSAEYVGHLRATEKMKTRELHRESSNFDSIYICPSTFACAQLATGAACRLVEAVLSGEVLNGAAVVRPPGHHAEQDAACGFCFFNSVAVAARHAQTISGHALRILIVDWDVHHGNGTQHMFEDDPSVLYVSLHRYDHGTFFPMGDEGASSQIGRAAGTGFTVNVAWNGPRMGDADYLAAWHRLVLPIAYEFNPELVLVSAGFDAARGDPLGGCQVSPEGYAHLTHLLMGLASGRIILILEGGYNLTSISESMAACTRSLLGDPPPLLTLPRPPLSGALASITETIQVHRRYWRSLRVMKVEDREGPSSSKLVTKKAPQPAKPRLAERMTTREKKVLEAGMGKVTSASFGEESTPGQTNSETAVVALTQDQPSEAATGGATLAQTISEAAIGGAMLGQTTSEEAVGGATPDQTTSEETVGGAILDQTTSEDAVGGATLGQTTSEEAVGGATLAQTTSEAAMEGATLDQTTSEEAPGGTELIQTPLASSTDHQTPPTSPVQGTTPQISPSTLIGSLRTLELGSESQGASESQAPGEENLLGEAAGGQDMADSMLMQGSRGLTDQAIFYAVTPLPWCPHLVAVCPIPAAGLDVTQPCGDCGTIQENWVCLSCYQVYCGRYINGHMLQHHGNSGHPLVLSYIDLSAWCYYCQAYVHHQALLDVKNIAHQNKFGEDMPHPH
HDAC2, sequence (Q92769 whole entry): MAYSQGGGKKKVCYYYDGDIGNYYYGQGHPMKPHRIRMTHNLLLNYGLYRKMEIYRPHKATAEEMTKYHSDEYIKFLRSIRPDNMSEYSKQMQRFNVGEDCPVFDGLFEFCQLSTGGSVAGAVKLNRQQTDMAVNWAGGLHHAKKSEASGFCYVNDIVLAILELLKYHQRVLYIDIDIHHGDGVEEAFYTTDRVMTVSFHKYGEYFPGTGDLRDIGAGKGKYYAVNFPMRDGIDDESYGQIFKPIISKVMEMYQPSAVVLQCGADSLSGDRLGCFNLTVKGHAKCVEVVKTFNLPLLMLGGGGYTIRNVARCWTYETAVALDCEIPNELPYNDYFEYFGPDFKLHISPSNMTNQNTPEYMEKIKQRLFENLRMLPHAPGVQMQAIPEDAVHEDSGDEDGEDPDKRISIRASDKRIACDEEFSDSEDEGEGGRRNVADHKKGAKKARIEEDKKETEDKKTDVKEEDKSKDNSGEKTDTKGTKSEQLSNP
HDAC1, sequence (Q13547 whole entry): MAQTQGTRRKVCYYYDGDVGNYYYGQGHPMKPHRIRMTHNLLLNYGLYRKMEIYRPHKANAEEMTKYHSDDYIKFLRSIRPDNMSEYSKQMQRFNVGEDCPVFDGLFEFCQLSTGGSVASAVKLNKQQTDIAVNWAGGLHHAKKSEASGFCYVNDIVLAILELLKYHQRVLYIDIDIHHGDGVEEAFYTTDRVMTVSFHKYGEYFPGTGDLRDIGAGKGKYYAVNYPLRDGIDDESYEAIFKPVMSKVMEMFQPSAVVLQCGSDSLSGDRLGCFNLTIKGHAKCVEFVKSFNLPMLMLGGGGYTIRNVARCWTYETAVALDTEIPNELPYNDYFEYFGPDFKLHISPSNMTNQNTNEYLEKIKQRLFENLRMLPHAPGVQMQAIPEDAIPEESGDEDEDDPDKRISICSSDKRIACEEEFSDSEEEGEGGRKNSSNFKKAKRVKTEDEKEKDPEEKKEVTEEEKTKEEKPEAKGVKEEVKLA

Structure (SMILES) | IC50 (HDAC6) | HDAC2 fold over HDAC6 IC50 (selectivity for HDAC6) (HDAC2) | HDAC1 fold over HDAC6 IC50 (selectivity for HDAC6) (HDAC1) | HDAC3 fold over HDAC6 IC50 (selectivity for HDAC6) (HDAC3) | IC50 (HDAC1) | IC50 (HDAC3) | IC50 (HDAC2)
O=C(NO)c1cnc(Nc2ccccc2)nc1 [Compound 1, N-hydroxy-2-(phenylamino)pyrimidine-5-carboxamide] | 7 nM | 30x | 20x | 27x |  |  | 
O=C(NO)c1cnc(Nc2ccc(Cl)c(Cl)c2)nc1 [Compound 2] | 5 nM |  |  |  | 264 nM | 299 nM | 
O=C(NO)c1cnc(Nc2ccc(F)cc2)nc1 [Compound 3] | 8 nM | (44.1x) | (26.7x) | (44.9x) | 210 nM | 354 nM | 347 nM
Cc1ccc(Nc2ncc(C(=O)NO)cn2)cc1 [Compound 4] | 9 nM | (32.8x) | (22x) | (32.9x) | 195 nM | 291 nM | 290 nM
COc1ccc(Nc2ncc(C(=O)NO)cn2)cc1 [Compound 5] | 15 nM | (26x) | (16.3x) | (27.8x) | 247 nM | 421 nM | 395 nM
O=C(NO)c1cnc(Nc2ccc(Cl)cc2)nc1 [Compound 6] | 20 nM | (11.6x) | (10.1x) | (13.3x) | 202 nM | 266 nM | 231 nM
O=C(NO)c1cnc(Nc2ccccc2Cl)nc1 [Compound 7] | 42 nM | (14.9x) | (9.9x) | (14.4x) | 415 nM | 606 nM | 629 nM
CN(c1ccc(Cl)c(Cl)c1)c1ncc(C(=O)NO)cn1 [Compound 8] | 38 nM |  |  |  |  | 219 nM | 
O=C(NO)c1cnc(Nc2ccc([N+](=O)[O-])c(C(F)(F)F)c2)nc1 [Compound 10] | 10 nM | (62.5x) | (32.6x) | (42.6x) | 329 nM | 430 nM | 631 nM
O=C(NO)c1cnc(Nc2cc(Cl)ccc2Cl)nc1 [Compound 12] | 15 nM | (30.2x) | (14.1x) | (23.5x) | 212 nM | 352 nM | 453 nM
O=C(NO)c1cnc(Nc2cc(C(F)(F)F)cc(C(F)(F)F)c2)nc1 [Compound 15] | 14 nM | (100.8x) | (102.2x) | (134.3x) | 1410 nM | 1850 nM | 1390 nM
O=C(NO)c1cnc(Nc2c(F)c(F)cc(F)c2F)nc1 [Compound 16] | 21 nM | (18.1x) | (15.7x) | (28.3x) | 332 nM | 600 nM | 384 nM
O=C(NO)c1cnc(Nc2cccc(Cl)c2)nc1 [Compound 17] | 5 nM | (29.6x) | (33.5x) | (36.5x) | 182 nM | 198 nM | 161 nM
O=C(NO)c1cnc(Nc2cc(F)cc(F)c2)nc1 [Compound 18] | 13 nM | 13.5x) | (10.8x) | (14.1x) | 136 nM | 177 nM | 170 nM
Cc1cc(C)cc(Nc2ncc(C(=O)NO)cn2)c1 [Compound 19] | 4 nM | (131.7x) | (69.1x) | (88x) | 251 nM | 319 nM | 478 nM
O=C(NO)c1cnc(Nc2c(Cl)cccc2Cl)nc1 [Compound 20] | 864 nM | (20.1x) | (12.3x | (18.9x) | 10600 nM | 16300 nM | 17300 nM
COc1cc(Nc2ncc(C(=O)NO)cn2)cc(C(F)(F)F)c1 [Compound 21] | 5 nM | (100.3x) | (46x) | (92.2x) | 241 nM | 484 nM | 526 nM
O=C(NO)c1cnc(Nc2cccc(C(F)(F)F)c2)nc1 [Compound 22] | 3 nM | (166.7x) | (83.1x) | (117x) | 222 nM | 313 nM | 446 nM
COc1cc(Nc2ncc(C(=O)NO)cn2)cc(OC)c1 [Compound 23] | 3 nM | (134x) | (60.4x) | (100.2x) | 155 nM | 257 nM | 343 nM
Cc1cc(F)cc(Nc2ncc(C(=O)NO)cn2)c1 [Compound 24] | 5 nM | (50.9x) | (26x) | (37.6x) | 133 nM | 193 nM | 261 nM
O=C(NO)c1cnc(Nc2cc(Cl)cc(C(F)(F)F)c2)nc1 [Compound 25] | 10 nM | (92.6x) | (50.9x) | (81.9x) | 516 nM | 830 nM | 938 nM
CC(Nc1ncc(C(=O)NO)cn1)c1ccccc1 (stereo not shown) [Compound 32] | 2 nM |  |  |  |  |  | 
O=C(NO)c1cnc(NCCc2ccccc2)nc1 [Compound 41] | 4 nM |  |  |  | 214 nM | 326 nM | 
O=C(NO)c1cnc(NCCc2ccc(Cl)cc2)nc1 [Compound 44] | 11 nM |  |  |  | 173 nM | 307 nM | 

Structure (SMILES) | IC50 (HDAC6) | HDAC2 fold over HDAC6 IC50 (selectivity for HDAC6) (HDAC2) | HDAC1 fold over HDAC6 IC50 (selectivity for HDAC6) (HDAC1) | HDAC3 fold over HDAC6 IC50 (selectivity for HDAC6) (HDAC3) | IC50 (HDAC1) | IC50 (HDAC3) | IC50 (HDAC2)
O=C(NO)c1cnc(NCc2ccc3c(c2)OCO3)nc1 [Compound 46] |  |  |  |  | 40 nM | 58 nM | 53 nM
COc1cc(F)ccc1CNc1ncc(C(=O)NO)cn1 [Compound 49] |  |  |  |  | 219 nM | 303 nM | 338 nM
Cc1cc(Cl)ccc1CNc1ncc(C(=O)NO)cn1 [Compound 52] | 3 nM |  |  |  | 185 nM |  | 
C[C@H](Nc1ncc(C(=O)NO)cn1)c1ccccc1 [Compound 61] | 37 nM |  |  |  |  |  | 
C[C@@H](Nc1ncc(C(=O)NO)cn1)c1ccccc1 [Compound 62] | 2 nM |  |  |  |  |  | 
C[C@H](Nc1ncc(C(=O)NO)cn1)c1ccccc1 [Compound 65] | 19 nM |  |  |  |  |  | 
C[C@@H](Nc1ncc(C(=O)NO)cn1)c1ccccc1 [Compound 66] | 1 nM |  |  |  |  |  | 
CC(Nc1ncc(C(=O)NO)cn1)c1ccccc1 (stereo not shown) [Compound 67] | 2 nM |  |  |  |  |  | 
O=C(NO)c1cnc(NCc2ccncc2)nc1 [Compound 69] | 5 nM |  |  |  | 204 nM | 299 nM | 
CC(C)(Nc1ncc(C(=O)NO)cn1)c1ccccc1F [Compound 71] |  |  |  |  | 500 nM | 1260 nM | 912 nM
O=C(NO)c1cnc(NC2(c3ccccc3F)CC2)nc1 [Compound 82] |  |  |  |  | 16 nM | 22 nM | 18 nM
O=C(NO)c1cnc(NC2(c3cccc(F)c3)CC2)nc1 [Compound 87] |  |  |  |  | 85 nM | 233 nM | 116 nM
O=C(NO)c1cnc(NC2(c3cccc(Cl)c3)CC2)nc1 [Compound 94] |  |  |  |  | 22 nM | 50 nM | 
O=C(NO)c1cnc(NC2(c3cccs3)CC2)nc1 [Compound 98] | 4 nM |  |  |  | 147 nM | 4250 nM | 
COc1cccc(C2(Nc3ncc(C(=O)NO)cn3)CC2)c1 [Compound 120] |  |  |  |  | 38 nM | 128 nM | 53 nM
O=C(NO)c1cnc(NC2(c3cccc(C(F)(F)F)c3)CC2)nc1 [Compound 121] |  |  |  |  | 27 nM | 99 nM | 32 nM
Cc1ccccc1C1(Nc2ncc(C(=O)NO)cn2)CC1 [Compound 127] |  |  |  |  | 50 nM | 119 nM | 57 nM
O=C(NO)c1cnc(NC2(c3ccc(F)c(Cl)c3)CC2)nc1 [Compound 131] |  |  |  |  | 17 nM | 62 nM | 19 nM
Cc1cccc(C2(Nc3ncc(C(=O)NO)cn3)CC2)c1 [Compound 134] |  |  |  |  | 47 nM | 99 nM | 40 nM
O=C(NO)c1cnc(NC2(c3ccc(Cl)cc3)CC2)nc1 [Compound 136] |  |  |  |  | 45 nM | 107 nM | 40 nM
O=C(NO)c1cnc(NC2(c3ccc(Cl)c(Cl)c3)CC2)nc1 [Compound 141] |  |  |  |  | 13 nM | 54 nM | 17 nM
O=C(NO)c1cnc(NC2(c3cc(Cl)cc(Cl)c3)CC2)nc1 [Compound 146] |  |  |  |  | 16 nM | 57 nM | 22 nM
O=C(NO)c1cnc(NC2(c3cccc(Cl)c3)CCCC2)nc1 [Compound 153] |  |  |  |  | 528 nM | 1260 nM | 491 nM
